For this test, the target named is T1, wild type aldosterone synthase (ASWT, CYP11B2) (Homo sapiens, UniProt P19099).
T1 construct: full ASWT cDNA
T1 sequence (P19099 25-503): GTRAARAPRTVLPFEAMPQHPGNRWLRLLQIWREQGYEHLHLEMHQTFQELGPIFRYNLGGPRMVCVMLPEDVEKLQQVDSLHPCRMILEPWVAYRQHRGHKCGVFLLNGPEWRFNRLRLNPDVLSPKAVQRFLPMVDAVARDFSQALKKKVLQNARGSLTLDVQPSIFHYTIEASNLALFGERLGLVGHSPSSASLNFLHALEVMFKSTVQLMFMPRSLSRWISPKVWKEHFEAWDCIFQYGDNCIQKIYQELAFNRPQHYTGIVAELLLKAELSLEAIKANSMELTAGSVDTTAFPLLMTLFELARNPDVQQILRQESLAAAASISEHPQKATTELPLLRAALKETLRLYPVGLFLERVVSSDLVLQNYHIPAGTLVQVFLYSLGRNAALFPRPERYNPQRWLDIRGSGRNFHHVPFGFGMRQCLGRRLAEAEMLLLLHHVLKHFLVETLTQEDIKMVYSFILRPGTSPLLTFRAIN
Description: aldosterone production from DOC in CYP11B2-transfected HEK-293 cells, HPLC-MS/MS; Km/Vmax shift. The format is cell-based.

Structures are written as SMILES. pIC50: −log10 of the molar value.

`CC(=O)[C@H]1CC[C@H]2[C@@H]3CCC4=CC(=O)CC[C@]4(C)[C@H]3CC[C@]12C` [progesterone]: the pIC50 (in general, the negative decadic logarithm of the IC50, by convention in mol/L) is 5.65.

Source of the values: article PMC3848474, “Different effects of progesterone and estradiol on chimeric and wild type aldosterone synthase in vitro” (Reproductive Biology and Endocrinology : RB&E, 2013).
